System: P. mirabilis 889
Experiment: MIC against P. mirabilis 889
Assay type: cell-based, Proteus mirabilis
Details: Proteus mirabilis, 889
Text: The antibiotic compounds of the present invention are active against a wide range of gram negative and gram positive organisms including E. coli such as, for example ESS, JT4, JT425 and NCTC 10418; Pseudomonas Spp. such Ps.aeruginosa for example 10662 and Dalgleish; Serratia marcescens US32; Klebsiella aerogenes A; Enterobacter cloacae N1; P.mirabilis such as, for example C977 and 889; P.morganii, P.rettgeri; B.subtilis; Staph aureus such as, for example Oxford and Russell; N.catarrhalis 1502; Strep faecalis I; β-Haemolytic Strep CN10. The MIC data included in the following examples is representative of the activity of the compounds of the present invention.

Row | MIC [µg/mL] | SMILES
1 | 0.25 | CCN1CCN(C(=O)N[C@@H](C(=O)N[C@]2(NC=O)C(=O)N3C(C(=O)O)=C(CSc4nnnn4C)C[S@@+]([O-])[C@@H]32)c2ccccc2)C(=O)C1=O [Example 8(d), Sodium 7β-[D-2-[(4-Ethyl-2,3-dioxopiperazin-1-yl)carbonylamino]-2-phenylacetamido]-7α-formamido-3-[(1-methyl-1H-tetrazol-5-yl)thiomethyl]ceph-3-em-4-carboxylate-1α-oxide]
2 | 0.5 | CCN1CCN(C(=O)N[C@@H](C(=O)N[C@]2(NC=O)C(=O)N3C(C(=O)O)=C(CSc4nnnn4C)C[S@+]([O-])[C@@H]32)c2ccccc2)C(=O)C1=O [Example 8(e), Sodium 7β-[D-2-[(4-Ethyl-2,3-dioxopiperazin-1-yl)carbonylamino]-2-phenylacetamido]-7α-formamido-3-[(1-methyl-1H-tetrazol-5-yl)thiomethyl]ceph-3-em-4-carboxylate-1β-oxide]
3 | 1 | CCN1CCN(C(=O)N[C@@H](C(=O)N[C@]2(NC=O)C(=O)N3C(C(=O)O)=C(CSc4nnnn4C)C[S@+]([O-])[C@@H]32)c2ccc(O)c(O)c2)C(=O)C1=O [Example 16(d), Sodium 7β-[D-2-(3,4-dihydroxyphenyl)-2-[(4-ethyl-2,3-dioxopiperazin-1-yl)carbonylamino]acetamido]-7α-formamido-3-[(1-methyl-1H-tetrazol-5-yl)thiomethyl]-ceph-3-em-4-carboxylate-1β-oxide]
4 | 0.25 | CCN1CCN(C(=O)N[C@@H](C(=O)N[C@]2(NC=O)C(=O)N3C(C(=O)O)=C(CSc4nnnn4C)C[S@@+]([O-])[C@@H]32)c2ccc(O)c(O)c2)C(=O)C1=O [Example 16(e), Sodium 7β-[D-2-(3,4-dihydroxyphenyl)-2-[(4-ethyl-2,3-dioxopiperazin-1-yl)carbonylamino]acetamido]-7α-formamido-3-[(1-methyl-1H-tetrazol-5-yl)thiomethyl]-ceph-3-em-4-carboxylate-1α-oxide]
5 | 8 | CC(=O)OCC1=C(C(=O)O)N2C(=O)[C@@](NC=O)(NC(=O)Cc3cccs3)[C@H]2[S@@+]([O-])C1 [Example 27(b), Sodium 7α-Formamido-7β-thien-2-ylacetamidocephalosporanate-1β-oxide]
6 | 2 | CC(=O)OCC1=C(C(=O)O)N2C(=O)[C@@](NC=O)(NC(=O)Cc3cccs3)[C@H]2[S@+]([O-])C1 [Example 27(c), Sodium 7α-Formamido-7β-thien-2-ylacetamidocephalosporanate-1α-oxide]

Same assay, conditions: Proteus mirabilis, 889, broth

Row | MIC [µg/mL] | SMILES
7 | 16 | NC(=O)OCC1=C(C(=O)O)N2C(=O)[C@@](NC=O)(NC(=O)Cc3cccs3)[C@H]2SC1 [Example 26(b), Sodium 3-carbamoyloxymethyl-7α-formamido-7β-thien-2-yletamido-ceph-3-em-4-carboxylate]

Reference: US4670431A, “Beta-lactam antibacterial agents” (Beecham Group p.l.c., priority 1983, dated 1987)
